{"source": "patent US12478595B1", "about": "“Organoselenium compound for treating cancer” (IMAM MOHAMMAD IBN SAUD ISLAMIC UNIVERSITY, priority 2024, dated 2025)", "type_in_all_cases": "cell-based", "key": {"[1]": {"tested_on": "HN9 (human squamous cell carcinoma of the oral tongue)", "assay": "growth inhibition of HN9 cancer cell line", "conditions": "read-out: growth inhibition percentage"}, "[2]": {"tested_on": "HuH7 (hepatocellular carcinoma)", "assay": "growth inhibition of HuH7 cancer cell line", "conditions": "Homo sapiens, Huh-7, read-out: growth inhibition percentage"}, "[3]": {"tested_on": "HEPG2 (hepatocellular carcinoma)", "assay": "growth inhibition of HEPG2 cancer cell line", "conditions": "Homo sapiens, HepG2, read-out: growth inhibition percentage"}, "[4]": {"tested_on": "A549 (non-small cell lung cancer)", "assay": "growth inhibition of A549 cancer cell line", "conditions": "Homo sapiens, A549, read-out: growth inhibition percentage"}, "[5]": {"tested_on": "HCT116 (colorectal carcinoma)", "assay": "growth inhibition of HCT116 cancer cell line", "conditions": "Homo sapiens, HCT-116, read-out: growth inhibition percentage"}, "A375 (melanoma cancer)": {"tested_on": "A375 (melanoma cancer)", "assay": "growth inhibition of A375 cancer cell line", "conditions": "Homo sapiens, A-375, read-out: growth inhibition percentage"}, "[6]": {"tested_on": "normal oral epithelial cell line (OEC)", "assay": "growth inhibition of OEC non-cancer cell line", "conditions": "read-out: growth inhibition percentage"}}, "data": [{"smiles": "C[Se]c1ccc(NC(=O)NCC2(C)CC(NC(=O)Nc3ccc([Se]C)cc3)CC(C)(C)C2)cc1", "note": "(stereo not shown) [HB188, 1-(4-(methylselanyl)phenyl)-3-((1,3,3-trimethyl-5-(3-(4-(methylselanyl)phenyl)ureido)cyclohexyl)methyl)urea]", "values": [{"measurement": "inhibition at 100 µg/mL", "setting": "[1]", "value": 74, "unit": "%"}, {"measurement": "inhibition at 100 µg/mL", "setting": "[2]", "value": 88.6, "unit": "%"}, {"measurement": "inhibition at 100 µg/mL", "setting": "[3]", "value": 76.2, "unit": "%"}, {"measurement": "inhibition at 100 µg/mL", "setting": "[4]", "value": 74.4, "unit": "%"}, {"measurement": "inhibition at 100 µg/mL", "setting": "[5]", "value": 85.3, "unit": "%"}, {"measurement": "inhibition at 100 µg/mL", "setting": "A375 (melanoma cancer)", "value": 66.8, "unit": "%"}, {"measurement": "inhibition at 100 µg/mL", "setting": "[6]", "value": 32.7, "unit": "%"}]}]}
